Read-outs that look alike come from different tables or passages of the source.
Key:
Assay type in all cases: cell-based
A549 = assay: Anti-proliferative activity, cell-titre luminescent viability assay; conditions: Homo sapiens, read-out: IC50 Lung (NSLC) A549
Procedure, shortened: (§1)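 Cells attached for 24 h at 37° C, 5% CO2, then received compound (0.03, 0.3, 3, 30 μM, or 0.1–30 μM in six steps) for 72 h. Viability was read by cell-titre luminescence after 30 min and normalized to untreated or vehicle control. IC50 came from linear regression of semi-log plots, or EC50 from variable-slope sigmoidal nonlinear regression, depending on compound.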

CaCo2 = assay: as above; conditions: Homo sapiens, read-out: IC50 Colorectal CaCo2
Procedure, shortened: as §1

DU145 = assay: as above; conditions: Homo sapiens, read-out: IC50 Prostate DU145
Procedure, shortened: as §1

MDA-MB-231 = assay: as above; conditions: Homo sapiens, read-out: IC50 Breast MDA-MB-231
Procedure, shortened: as §1

PC3 = assay: as above; conditions: Homo sapiens, read-out: IC50 Prostate PC3
Procedure, shortened: as §1

SK-Mel-28 = assay: as above; conditions: Homo sapiens, SK-MEL-28, 72 hours, read-out: IC50 Melanoma SK-Mel-28
Procedure, shortened: as §1

SK-N-SH = assay: as above; conditions: Homo sapiens, SK-N-SH, read-out: IC50 Neuroblastoma SK-N-SH
Procedure, shortened: as §1

[1] = system: total actin cytoskeleton in SK-N-SH neuroblastoma cells; assay: Microfilament disruption assay, phalloidin staining; conditions: 0-40 μM, 24 hours post treatment
Method: (§2) FIG. 1: Imaging and quantitation of actin filaments in SK-N-SH neuroblastoma cells treated with compound (A) 3504, (B) 3507 and (C) 3516. Cells were stained with 488-Atto-Phallodin and DAPI to visualize the actin filament bundles and the nucleus, respectively. Shown in the top panel is a representative grey scale immunofluorescent image from control (vehicle alone), 5 μM and 10 μM treated cells. […] The coloured lines indicate the detected actin filaments. Also shown is the quantitation of cell number, filament number/cell and filament number/cell area (μM^2). […]
(§3) The ability of compounds 3504, 3507 and 3516 to disrupt the total actin cytoskeleton (FIG. 1) and to specifically target Tpm3.1-containing actin filaments (FIG. 2) was assessed in vitro using the microfilament disruption assay.
(§4) Briefly, SK-N-SH neuroblastoma cells were seeded at 1800 cells/well in a 384 Perkin Elmer High Content Imaging “View” plate and left to plate down 24 hours prior to treatment. […] Images were then exported and changes in the organization and numbers of actin filaments within the cell were quantitated using a linear feature detection algorithm developed by the CSIRO (Vindin et al., 2014). […] It is these “ridge lines” that correspond to actin filament bundles and allow us to quantitate the number of filaments per cell.

[2] = system: Tpm3.1-containing actin filaments in SK-N-SH neuroblastoma cells; assay: Microfilament disruption assay, γ9d staining; conditions: 0-40 μM, 24 hours post treatment
Method: as §2, with “FIG. 2:” for “FIG. 1:”, “with γ9d (sheep polycolonal, 1:100) followed by 488-conjugated secondary (1:1000)” for “with 488-Atto-Phallodin”, “the Tpm3.1 containing” for “the actin”
as §3, §4

IFN-γ = assay: Inhibition of cytokine release from PBMCs (HTRF); conditions: PBMC, human PBMCs, PMA and ionomycin stimulated
Method: (§5) The ability of compounds 3507, 3520, 3534 and 3538 to inhibit the release of cytokines TNF-α, IFN-γ, IL-6, IL-21, IL-17A and IL-23 was evaluated in vitro (Tables 4 and 5). Briefly, human peripheral blood mononuclear cells (PBMCs) were isolated from human peripheral blood by Histopaque density gradient centrifugation. The freshly isolated PBMCs were seeded at 50,000 cells/well in a 96-well half area plate. PBMCs were dosed with the test compounds (at 10 μM, 1 μM and 0.1 μM) and then incubated at 37° C. and 5% CO2 for 2 hours. To stimulate release of the cytokines IFN-γ, IL-21, IL-17A and IL-23, the PBMCs were treated with 50 ng/mL of phorbol 12-myristate 13-acetate (PMA) and 1 μg/mL of ionomycin and to stimulate the release of TNF-α and IL-6, PBMCs were treated with 100 ng/mL of lipopolysaccharide (LPS) from gram-negative bacteria. The PBMCs were then incubated at 37° C. and 5% CO2 for a further 6 hours and the cell supernatant was collected and a Homogenous Time Resolved Fluorescence (HTRF) assay was carried out following the manufacturer's instructions. Cytokine release from the PBMCs was captured using a Perkin Elmer ENVISION 2104 microplate reader set at 615 nm and 665 nm respectively.

IL-17A = assay: Inhibition of cytokine release from PBMCs (HTRF); conditions: PBMC, human PBMCs, PMA and ionomycin stimulated
Method: as §5

IL-21 = assay: Inhibition of cytokine release from PBMCs (HTRF); conditions: PBMC, human PBMCs, PMA and ionomycin stimulated
Method: as §5

IL-23 = assay: Inhibition of cytokine release from PBMCs (HTRF); conditions: PBMC, human PBMCs, PMA and ionomycin stimulated
Method: as §5

IL-6 = assay: Inhibition of cytokine release from PBMCs (HTRF); conditions: PBMC, human PBMCs, LPS stimulated
Method: as §5

TNF-α = assay: Inhibition of cytokine release from PBMCs (HTRF); conditions: PBMC, human PBMCs, LPS stimulated
Method: as §5

[3] = A549, 72 h, 0.1, 0.3, 1, 3, 10 and 30 μM, nonlinear regression sigmoidal dose-response (EC50)
[4] = Caco-2, 72 h, 0.1, 0.3, 1, 3, 10 and 30 μM, nonlinear regression sigmoidal dose-response (EC50)
[5] = DU-145, 72 h, 0.1, 0.3, 1, 3, 10 and 30 μM, nonlinear regression sigmoidal dose-response (EC50)
[6] = MDA-MB-231, 72 h, 0.1, 0.3, 1, 3, 10 and 30 μM, nonlinear regression sigmoidal dose-response (EC50)
[7] = PC-3, 72 h, 0.1, 0.3, 1, 3, 10 and 30 μM, nonlinear regression sigmoidal dose-response (EC50)
[8] = 0.1, 0.3, 1, 3, 10 and 30 μM, nonlinear regression sigmoidal dose-response (EC50)
[9] = 72 h, 0.1, 0.3, 1, 3, 10 and 30 μM, nonlinear regression sigmoidal dose-response (EC50)
[10] = A549, 72 h, 0.03, 0.3, 3 and 30 μM, linear regression of semi-log plots
[11] = Caco-2, 72 h, 0.03, 0.3, 3 and 30 μM, linear regression of semi-log plots
[12] = DU-145, 72 h, 0.03, 0.3, 3 and 30 μM, linear regression of semi-log plots
[13] = MDA-MB-231, 72 h, 0.03, 0.3, 3 and 30 μM, linear regression of semi-log plots
[14] = PC-3, 72 h, 0.03, 0.3, 3 and 30 μM, linear regression of semi-log plots
[15] = 0.03, 0.3, 3 and 30 μM, linear regression of semi-log plots
[16] = 72 h, 0.03, 0.3, 3 and 30 μM, linear regression of semi-log plots

| SMILES | IC50 (A549; [3]) | IC50 (CaCo2; [4]) | inhibition at 0.1 µM (IFN-γ) | inhibition at 1 µM (IFN-γ) | inhibition at 10 µM (IFN-γ) | inhibition at 0.1 µM (IL-17A) | inhibition at 1 µM (IL-17A) | inhibition at 10 µM (IL-17A) | inhibition at 0.1 µM (IL-21) | inhibition at 1 µM (IL-21) | inhibition at 10 µM (IL-21) | inhibition at 0.1 µM (IL-23) | inhibition at 1 µM (IL-23) | inhibition at 10 µM (IL-23) | inhibition at 0.1 µM (IL-6) | inhibition at 1 µM (IL-6) | inhibition at 10 µM (IL-6) | inhibition at 0.1 µM (TNF-α) | inhibition at 1 µM (TNF-α) | inhibition at 10 µM (TNF-α) | also measured |
| --- | --- | --- | --- | --- | --- | --- | --- | --- | --- | --- | --- | --- | --- | --- | --- | --- | --- | --- | --- | --- | --- |
| Cc1c(C)n(CCCN2CCN(C)CC2)c2ccc(Cc3cccc(C(=O)N4CCN(CCc5cccc(F)c5)CC4)c3)cc12 [Compound 3504, (3-((2,3-dimethyl-1-(3-(4-methylpiperazin-1-yl)propyl)-1H-indol-5-yl)methyl)phenyl)(4-(3-fluorophenethyl)piperazin-1-yl)methanone] | 1.6 µM | 1.8 µM | – | – | – | – | – | – | – | – | – | – | – | – | – | – | – | – | – | – | IC50 (DU145; [5]): 1.4 µM; IC50 (MDA-MB-231; [6]): 1.5 µM; IC50 (PC3; [7]): 2 µM; IC50 (SK-Mel-28; [8]): 1.1 µM; IC50 (SK-N-SH; [9]): 1.5 µM; disruption of the total actin cytoskeleton [1]: in a dose-dependent manner; disruption of Tpm3.1-containing actin filaments [2]: in a dose-dependent manner |
| COc1ccc(CCN2CCN(C(=O)c3ccc(Cc4ccc5c(c4)c(C)c(C)n5CCCN4CCN(C)CC4)cc3)CC2)cc1 [Compound 3520, (4-((2,3-dimethyl-1-(3-(4-methylpiperazin-1-yl)propyl)-1H-indol-5-yl)methyl)phenyl)(4-(4-methoxyphenethyl)piperazin-1-yl)methanone] | – | – | 1% | 0% | 4% | -11% | -7% | 1% | -8% | -13% | -12% | -8% | -1% | 12% | -10% | -9% | 3% | -8% | -10% | -14% | IC50 (A549; [10]): 2.4 µM; IC50 (CaCo2; [11]): 3.5 µM; IC50 (DU145; [12]): 2.7 µM; IC50 (MDA-MB-231; [13]): 2.8 µM; IC50 (PC3; [14]): 2.3 µM; IC50 (SK-Mel-28; [15]): 2.5 µM; IC50 (SK-N-SH; [16]): 2.3 µM |
| Cc1c(C)n(CCCN2CCN(C)CC2)c2ccc(Nc3ccc(C(=O)N4CCN(CCc5cccc(F)c5)CC4)cc3)cc12 [Compound 3534, (4-((2,3-dimethyl-1-(3-(4-methylpiperazin-1-yl)propyl)-1H-indol-5-yl)amino)phenyl)(4-(3-fluorophenethyl)piperazin-1-yl)methanone] | – | – | 23% | 39% | 85% | 1% | 1% | 12% | 0% | -8% | 11% | -5% | -1% | 20% | 13% | 21% | 48% | 2% | 5% | -12% | IC50 (A549; [10]): 1.5 µM; IC50 (CaCo2; [11]): 3.2 µM; IC50 (DU145; [12]): 1.4 µM; IC50 (MDA-MB-231; [13]): 1.6 µM; IC50 (PC3; [14]): 2.8 µM; IC50 (SK-Mel-28; [15]): 1.2 µM; IC50 (SK-N-SH; [16]): 1.4 µM |
| COc1ccc2cc(CCN3CCN(C(=O)c4cccc(Cc5ccc6c(c5)c(C)c(C)n6CCCN5CCN(C)CC5)c4)CC3)ccc2c1 [Compound 3538, (3-((2,3-dimethyl-1-(3-(4-methylpiperazin-1-yl)propyl)-1H-indol-5-yl)methyl)phenyl)(4-(2-(6-methoxynaphthalen-2-yl)ethyl)piperazin-1-yl)methanone] | 4.3 µM | 5.7 µM | 24% | 58% | 86% | 21% | 42% | 86% | 1% | 8% | 11% | -19% | -20% | 30% | -13% | -13% | -10% | -10% | -4% | -7% | IC50 (DU145; [5]): 4.2 µM; IC50 (MDA-MB-231; [6]): 3.6 µM; IC50 (PC3; [7]): 3.9 µM; IC50 (SK-Mel-28; [8]): 3.3 µM; IC50 (SK-N-SH; [9]): 4.8 µM |

From US20170152226A1, “FUNCTIONALISED AND SUBSTITUTED INDOLES AS ANTI-CANCER AGENTS” (Novogen Ltd., priority 2014, published 2017)
